Read-outs that look alike come from different tables or passages of the source.
Experiments:
[1] = Penetration rates through human skin in vitro, modified Franz cells; settings: through human skin (360-400 μm), receiving fluid pH 7.4 phosphate buffer (0.2 M)
[2] = tested on: motor function deficits induced by 6-OHDA in Parkinson's disease (PD) model; test: Rotarod test in rats with 6-OHDA lesion, Parkinson's disease (PD) model; assay type: in vivo, Sprague-Dawley rats; settings: Example 31
Procedure: Test subjects (Sprague-Dawley rats) were prepared, grouped, and tested following the protocol below: • 1. 200 Sprague-Dawley rats (male, 200-230 g) underwent brain stereotaxic surgery after 1 week acclamation in animal facility; • 2. After anesthesia, a bur hole (1 mm in diameter) was made on skull on the left side with a motor drill based on the coordinates: AP +0.5 mm, ML −2.8 mm, DV 6.0 mm relative to Bregma; • 3. 6-OHDA (20 μg at 5 mg/mL) or sterile saline was injected into the left striatum with a microsyringe fitted with a 26-gauge steel cannula. The chemical caused the retrograde neurodegeneration in the distal substantia nigra and impairs dopamine transmission in the nigro-striatal pathway, which eventually led to functional disturbance of motor activities; • 4. Apomorphine and classic rotation test was carried out to screen animals at the end of week 3 post 6-OHDA treatment. Animals that matched lesion type and apomorphine-induced rotational scores were allotted to 11 groups; and • 5. Rats were divided into 11 groups (n=12), each group was applied with the drug(s) at the doses specified in Table 2:
• 6. Dose Formulations • (1) L-DOPA in water (3 mg/mL) was the positive control solution for group 1 (orally for group 1, transdermally for groups 2-11). The volume of administration was 2 mL/kg. Vehicle solution (negative control solution for group 2) was 30% ethanol (v/v). The volume of administration was 1286 μL/kg. Other test solutions (groups 3-11) were freshly prepared every day. • (2) Preparation method of test solutions for groups 3-5: 50.33 mg of Drug A was dissolved in 10 mL of 30% ethanol(v/v). This solution was the stock solution[(2)a]. • a. The test solution for group 5 (high dose group) of Drug A: The stock solution [(2)a] was the test solution for Group 5. The volume of administration was 1286 μL/kg. • b. The test solution for group 4 (moderate dose group) of Drug A: 3.00 mL of the stock solution [(2)a] was diluted to final volume 9.00 mL with 30% ethanol(v/v). This solution was the test solution for Group 4. The volume of administration was 1286 μL/kg. • c. […]

[3] = human, pH 7.4
[4] = tested on: motor function deficits induced by 6-OHDA in Parkinson's disease (PD) model; test: Rotarod test in rats with 6-OHDA lesion, Parkinson's disease (PD) model; assay type: in vivo, Sprague-Dawley rats; settings: for Efficacy of low dose compared with moderate and high dose groups: 0.67 mg/kg transdermal (group 3) vs 2 mg and 6 mg/kg (groups 4 and 5); for Efficacy in Rotarod test comparing to vehicle group and positive control group: four-week treatment

| The cumulative amount of test compounds ([3]; 1 h) [mg] | The cumulative amount of test compounds ([3]; 2 h) [mg] | The cumulative amount of test compounds ([3]; 4 h) [mg] | The cumulative amount of test compounds ([3]; 8 h) [mg] | Structure (SMILES) | further results |
| --- | --- | --- | --- | --- | --- |
| – | – | – | – | Cl.NCCc1ccc(OC(=O)c2ccccc2)c(OC(=O)c2ccccc2)c1 [Compound-10, 4-(2-aminoethyl)-1,2-phenylene dibenzoate hydrochloride] | The cumulative amount of test compounds ([1]; 1 h): 0.68 mg; The cumulative amount of test compounds ([1]; 2 h): 1.35 mg; The cumulative amount of test compounds ([1]; 4 h): 2.74 mg; The cumulative amount of test compounds ([1]; 8 h): 5.55 mg |
| 0.58 | 1.15 | 2.33 | 4.71 | CC(C)OC(=O)[C@@H](N)Cc1ccc(OC(=O)c2ccccc2)c(OC(=O)c2ccccc2)c1.Cl [Compound-11, (S)-4-(2-amino-3-isopropoxy-3-oxopropyl)-1,2-phenylene dibenzoate hydrochloride] | Side effects (dyskinesia at peak dose, end-of-dose deterioration of function etc.) ([2]; L-DOPA orally, pro-drug transdermally): avoided dyskinesia at peak dose, and end-of-dose deterioration of function; Efficacy of low dose compared with moderate and high dose groups ([4]; Example 31): much higher than that of the moderate and high dose groups |
| 0.53 | 1.07 | 2.13 | 4.29 | CCCC(CCC)OC(=O)[C@@H](N)Cc1ccc(OC(=O)c2ccccc2)c(OC(=O)c2ccccc2)c1.Cl [Compound-12, (S)-4-(2-amino-3-(heptan-4-yloxy)-3-oxopropyl)-1,2-phenylene dibenzoate hydrochloride] | Efficacy of low dose compared with moderate and high dose groups ([4]; Example 36): much higher than that of the moderate and high dose groups |
| 0.55 | 1.08 | 2.23 | 4.41 | Br.CCC(CC)OC(=O)[C@@H](N)Cc1ccc(OC(=O)C(C)C)c(OC(=O)C(C)C)c1 [Compound-15, (S)-4-(2-amino-3-oxo-3-(pentan-3-yloxy)propyl)-1,2-phenylene bis(2-methylpropanoate) hydrobromide] | Efficacy of low dose compared with moderate and high dose groups ([4]; Example 33): much higher than that of the moderate and high dose groups; Side effects (dyskinesia at peak dose, end-of-dose deterioration of function etc.) ([4]; Example 33, L-DOPA orally, pro-drug transdermally): avoided dyskinesia at peak dose, and end-of-dose deterioration of function |
| – | – | – | – | Cl.NCCc1ccc(O)c(O)c1 [Compound-30, 4-(2-aminoethyl)benzene-1,2-diol hydrochloride] | The cumulative amount of test compounds ([1]; 1 h): 0.12 mg; The cumulative amount of test compounds ([1]; 2 h): 0.25 mg; The cumulative amount of test compounds ([1]; 4 h): 0.52 mg; The cumulative amount of test compounds ([1]; 8 h): 1.05 mg |
| 0.001 | 0.001 | 0.002 | 0.003 | CC(=O)Oc1ccccc1C(=O)O [Compound-32, acetylsalicylic acid, reference compound] | – |
| – | – | – | – | CC(C)Cc1ccc(C(C)C(=O)O)cc1 (centres unmarked) [Compound-33, 2-(ρ-isobutylphenyl)propionic acid] | The cumulative amount of test compounds ([1]; 1 h): 0.001 mg; The cumulative amount of test compounds ([1]; 2 h): 0.001 mg; The cumulative amount of test compounds ([1]; 4 h): 0.002 mg; The cumulative amount of test compounds ([1]; 8 h): 0.003 mg |
| 0.001 | 0.001 | 0.002 | 0.003 | CC(C(=O)O)c1cccc(Oc2ccccc2)c1 (centres unmarked) [Compound-34, 2-(3-phenoxyphenyl) propionic acid, reference compound] | – |
| – | – | – | – | CC(=O)O.CCN(CC)CCOC(=O)C(C)c1ccc(CC(C)C)cc1 (centres unmarked) [Drug D, 2-(diethylamino)ethyl 2-(4-isobutylphenyl)propionate acetic acid salt] | Efficacy in Rotarod test comparing to vehicle group and positive control group ([4]; Example 33, 15 mg and 45 mg/kg transdermal): good efficacy |
| – | – | – | – | CC(C(=O)OCCCCN(C)C)c1cccc(Oc2ccccc2)c1.Cl (centres unmarked) [Drug F, 4-(dimethylamino)butyl 2-(3-phenoxyphenyl) Propionate Hydrochloride] | Efficacy in Rotarod test comparing to vehicle group and positive control group ([4]; Example 35, 20 mg and 60 mg/kg transdermal): good efficacy |
| – | – | – | – | C[C@@](Cc1ccc(O)c(O)c1)(NN)C(=O)O [carbidopa] | Effect on efficacy of L-Dopa and pro-drug of L-Dopa (Drug A) treated groups ([4]; Example 32, carbidopa 1.5 mg/kg orally, groups 1, 3, 4, 5, 6, 7, 9, 10, 4 weeks treatment): increased efficacy; Effect on efficacy of vehicle group and pro-drug of aspirin (Drug B) treated groups ([4]; Example 32, carbidopa 1.5 mg/kg orally, groups 2, 8 and 11, 4 weeks treatment): did not change the efficacy; Effect on efficacy of L-Dopa and pro-drug of L-Dopa treated groups ([4]; Example 34, carbidopa 1.5 mg/kg orally, groups 1, 3, 4, 5, 6, 7, 9, 10 (L-DOPA, Drug C), 4 weeks treatment): increased efficacy; Effect on efficacy of vehicle group and pro-drug of ibuprofen treated groups ([4]; Example 34, carbidopa 1.5 mg/kg orally, groups 2, 8 and 11 (Drug D), 4 weeks treatment): did not change the efficacy |

| Structure (SMILES) | The cumulative amount of test compounds ([3]; 1 h) [mg] | The cumulative amount of test compounds ([3]; 2 h) [mg] | The cumulative amount of test compounds ([3]; 4 h) [mg] | The cumulative amount of test compounds ([3]; 8 h) [mg] | further results |
| --- | --- | --- | --- | --- | --- |
| CCCN(CCC)CCOC(=O)c1cc(-c2ccc(F)cc2F)ccc1OC(C)=O.Cl [Compound-27, 2-(dipropylamino)ethyl 4-acetoxy-2′,4′-difluoro-[1,1′-biphenyl]-3-carboxylate hydrochloride] | 1.01 | 2.03 | 4.11 | 8.25 | Efficacy in Rotarod test comparing to vehicle group and positive control group ([4]; Example 36, 15 mg and 45 mg/kg transdermal): good efficacy |
| CCN(CC)CCOC(=O)c1ccccc1OC(C)=O.Cl [Compound-29, 2-(diethylamino)ethyl 2-acetoxybenzoate hydrochloride] | 1.08 | 2.13 | 4.27 | 8.48 | Efficacy in Rotarod test comparing to vehicle group and positive control group ([2]; 30 mg and 90 mg/kg transdermal, three-week treatment): good efficacy |

Reference: patent US11685739B2, “High penetration drugs and their compositions thereof for treatment of Parkinson diseases” (TECHFIELDS PHARMA CO., LTD, priority 2013, dated 2023)
